Assay results: US20190256819A1, “PROCESS FOR IMPROVING THE DISSOLUTION BEHAVIOUR OF COMPONENTS IN AQUEOUS SOLUTIONS” (Merck Patent GmbH, priority 2016, published 2019)

Assay: Measurement of dissolution enthalpy by solution calorimetry (TAM IV Microcalorimeter), relative temperature as a function of time
Type: physicochemical
Conditions: 250 mg sample in 100 mL water, 25° C., stirring at 500 rpm, ampoule broken; FIGS. 1-4
Procedure: The TAM IV Microcalorimeter was used to detect temperature changes of solutions with an accuracy of 0.001 K, which evolves from the dissolution enthalpy of the substances being tested.
Different formulations of amino acids are placed in an ampoule, surrounded by aqueous solvent. After the ampoule has been ruptured, the temperature change is analyzed.
Experimental Setup: • 250 mg of each sample were filled into a 1 mL crushing ampoule at ambient conditions without any pre-treatment. • The ampoules were closed with a silicone stopper and wax and inserted into the stirrer of the solution calorimeter and immersed into 100 mL water. • The system was then equilibrated at 25° C. while stirring at 500 rpm before the ampoule was broken. • Calibrations with a heat pulse of 2.5 J at a power of 250 mW were performed before and after the break. • For data evaluation, the slope of the baseline before breaking the sample was set to zero by differentiation of the curve, shift to zero and re-integration.
For spray dried multicomponent amino acids the enthalpy of solution measurement have been carried out on a special ampule calorimeter equipped with an isothermal shell. In the course of the calorimetry measurement, the stability of the temperature-control system was maintained constant to within 10^−4K. All experiments were performed three times and were reproducible within 5%.

Row | Compound | Relative temperature as a function of time on dissolution (enthalpy of solution)
1 | CC(C)C[C@H](N)C(=O)O [L-leucine] | steady decrease in the temperature
2 | O=C(O)[C@@H]1CCCN1 [L-proline] | strong increase in the temperature is observed followed by a continous decrease
